Numbers after ± are expanded uncertainties.
Experiments:
[1] = xn = mol fraction of the nth substance listed; conditions: 298.15 K, 101.3 kPa, Liquid
[2] = 298.15 K; 101.3 kPa; Liquid

Compound CCC(C)=O [butanone] + Cc1ccc(C)cc1 has a mass density ([1]; x2 = 0) of 799.6 ± 0.9 kg/m3, a speed of sound ([1]; x2 = 0) of 1195 ± 3 m/s and a viscosity ([1]; x2 = 0) of 0.376 ± 0.009 mPa·s. It also gave a mass density ([1]; x2 = 0.0429) of 806 ± 0.9 kg/m3, a speed of sound ([1]; x2 = 0.0429) of 1218 ± 3 m/s and a viscosity ([1]; x2 = 0.0429) of 0.392 ± 0.009 mPa·s. The mass density ([1]; x2 = 0.1074) was 813.8 ± 0.9 kg/m3, the speed of sound ([1]; x2 = 0.1074) was 1237 ± 3 m/s and the viscosity ([1]; x2 = 0.1074) was 0.414 ± 0.009 mPa·s. For the same compound, the mass density ([1]; x2 = 0.2235) was 823.5 ± 0.9 kg/m3, the speed of sound ([1]; x2 = 0.2235) was 1257 ± 3 m/s and the viscosity ([1]; x2 = 0.2235) was 0.444 ± 0.009 mPa·s. For the same compound, the mass density ([1]; x2 = 0.3501) was 830.4 ± 0.9 kg/m3, the speed of sound ([1]; x2 = 0.3501) was 1272 ± 3 m/s and the viscosity ([1]; x2 = 0.3501) was 0.471 ± 0.01 mPa·s. The mass density ([1]; x2 = 0.4895) was 836.6 ± 0.9 kg/m3, the speed of sound ([1]; x2 = 0.4895) was 1289 ± 3 m/s and the viscosity ([1]; x2 = 0.4895) was 0.5 ± 0.01 mPa·s. It also gave a mass density ([1]; x2 = 0.6419) of 842.9 ± 0.9 kg/m3, a speed of sound ([1]; x2 = 0.6419) of 1299 ± 3 m/s and a viscosity ([1]; x2 = 0.6419) of 0.533 ± 0.01 mPa·s. The mass density ([1]; x2 = 0.8117) was 849.6 ± 1 kg/m3, the speed of sound ([1]; x2 = 0.8117) was 1308 ± 3 m/s and the viscosity ([1]; x2 = 0.8117) was 0.572 ± 0.011 mPa·s. It also gave a mass density ([1]; x2 = 0.9213) of 853.2 ± 1 kg/m3, a speed of sound ([1]; x2 = 0.9213) of 1313 ± 3 m/s and a viscosity ([1]; x2 = 0.9213) of 0.596 ± 0.011 mPa·s.
Cc1ccccc1C [1,2-dimethylbenzene] showed a mass density [2] of 875.2 ± 1 kg/m3, a speed of sound [2] of 1349 ± 3 m/s and a viscosity [2] of 0.768 ± 0.013 mPa·s.
CC(C)c1ccccc1 [isopropylbenzene] gave a mass density [2] of 857.1 ± 1 kg/m3, a speed of sound [2] of 1338 ± 3 m/s and a viscosity [2] of 0.739 ± 0.013 mPa·s.
Compound CCC(C)=O [butanone] + Cc1cccc(C)c1 has a mass density ([1]; x2 = 0) of 799.6 ± 0.9 kg/m3, a speed of sound ([1]; x2 = 0) of 1195 ± 4 m/s and a viscosity ([1]; x2 = 0) of 0.376 ± 0.009 mPa·s.
Cc1ccccc1C [1,2-dimethylbenzene] + CCC(C)=O gave a mass density ([1]; x1 = 1) of 875.2 ± 1 kg/m3, a speed of sound ([1]; x1 = 1) of 1349 ± 3 m/s and a viscosity ([1]; x1 = 1) of 0.768 ± 0.013 mPa·s.
Compound Cc1cccc(C)c1 [1,3-dimethylbenzene] has a mass density [2] of 859.4 ± 1 kg/m3, a speed of sound [2] of 1323 ± 4 m/s and a viscosity [2] of 0.587 ± 0.011 mPa·s.
With CC(C)c1ccccc1 [isopropylbenzene] + CCC(C)=O the mass density ([1]; x1 = 0.0377) was 805 ± 0.9 kg/m3, the speed of sound ([1]; x1 = 0.0377) was 1204 ± 3 m/s and the viscosity ([1]; x1 = 0.0377) was 0.388 ± 0.009 mPa·s. For the same compound, the mass density ([1]; x1 = 0.0964) was 812.2 ± 0.9 kg/m3, the speed of sound ([1]; x1 = 0.0964) was 1217 ± 3 m/s and the viscosity ([1]; x1 = 0.0964) was 0.408 ± 0.009 mPa·s. For the same compound, the mass density ([1]; x1 = 0.2025) was 821.7 ± 0.9 kg/m3, the speed of sound ([1]; x1 = 0.2025) was 1240 ± 3 m/s and the viscosity ([1]; x1 = 0.2025) was 0.445 ± 0.009 mPa·s. For the same compound, the mass density ([1]; x1 = 0.3251) was 829.5 ± 0.9 kg/m3, the speed of sound ([1]; x1 = 0.3251) was 1262 ± 3 m/s and the viscosity ([1]; x1 = 0.3251) was 0.486 ± 0.01 mPa·s. The mass density ([1]; x1 = 0.4599) was 835.4 ± 0.9 kg/m3, the speed of sound ([1]; x1 = 0.4599) was 1279 ± 3 m/s and the viscosity ([1]; x1 = 0.4599) was 0.535 ± 0.01 mPa·s. The mass density ([1]; x1 = 0.615) was 842 ± 0.9 kg/m3, the speed of sound ([1]; x1 = 0.615) was 1290 ± 3 m/s and the viscosity ([1]; x1 = 0.615) was 0.592 ± 0.011 mPa·s. It also gave a mass density ([1]; x1 = 0.7937) of 849.2 ± 1 kg/m3, a speed of sound ([1]; x1 = 0.7937) of 1298 ± 3 m/s and a viscosity ([1]; x1 = 0.7937) of 0.66 ± 0.012 mPa·s. For the same compound, the mass density ([1]; x1 = 0.9123) was 853.9 ± 1 kg/m3, the speed of sound ([1]; x1 = 0.9123) was 1308 ± 3 m/s and the viscosity ([1]; x1 = 0.9123) was 0.705 ± 0.012 mPa·s. It also gave a mass density ([1]; x1 = 1) of 857.1 ± 1 kg/m3, a speed of sound ([1]; x1 = 1) of 1338 ± 3 m/s and a viscosity ([1]; x1 = 1) of 0.739 ± 0.013 mPa·s.
Work on Cc1cccc(C)c1 [1,3-dimethylbenzene] + CCC(C)=O yielded a mass density ([1]; x1 = 0.0428) of 803.5 ± 0.9 kg/m3, a speed of sound ([1]; x1 = 0.0428) of 1204 ± 4 m/s and a viscosity ([1]; x1 = 0.0428) of 0.384 ± 0.009 mPa·s. The mass density ([1]; x1 = 0.1084) was 809.2 ± 0.9 kg/m3, the speed of sound ([1]; x1 = 0.1084) was 1218 ± 4 m/s and the viscosity ([1]; x1 = 0.1084) was 0.398 ± 0.009 mPa·s. For the same compound, the mass density ([1]; x1 = 0.2261) was 818.3 ± 0.9 kg/m3, the speed of sound ([1]; x1 = 0.2261) was 1240 ± 4 m/s and the viscosity ([1]; x1 = 0.2261) was 0.422 ± 0.009 mPa·s. For the same compound, the mass density ([1]; x1 = 0.3524) was 827 ± 0.9 kg/m3, the speed of sound ([1]; x1 = 0.3524) was 1256 ± 4 m/s and the viscosity ([1]; x1 = 0.3524) was 0.448 ± 0.01 mPa·s. The mass density ([1]; x1 = 0.4941) was 835.7 ± 0.9 kg/m3, the speed of sound ([1]; x1 = 0.4941) was 1273 ± 4 m/s and the viscosity ([1]; x1 = 0.4941) was 0.478 ± 0.01 mPa·s. For the same compound, the mass density ([1]; x1 = 0.646) was 844.1 ± 0.9 kg/m3, the speed of sound ([1]; x1 = 0.646) was 1293 ± 4 m/s and the viscosity ([1]; x1 = 0.646) was 0.51 ± 0.01 mPa·s. It also gave a mass density ([1]; x1 = 0.8137) of 852 ± 1 kg/m3, a speed of sound ([1]; x1 = 0.8137) of 1312 ± 4 m/s and a viscosity ([1]; x1 = 0.8137) of 0.546 ± 0.011 mPa·s. It also gave a mass density ([1]; x1 = 0.9235) of 856.7 ± 1 kg/m3, a speed of sound ([1]; x1 = 0.9235) of 1320 ± 4 m/s and a viscosity ([1]; x1 = 0.9235) of 0.57 ± 0.011 mPa·s. For the same compound, the mass density ([1]; x1 = 1) was 859.4 ± 1 kg/m3, the speed of sound ([1]; x1 = 1) was 1323 ± 4 m/s and the viscosity ([1]; x1 = 1) was 0.587 ± 0.011 mPa·s.
In the case of Cc1ccc(C)cc1 [1,4-dimethylbenzene] + CCC(C)=O, the mass density ([1]; x1 = 1) is reported as 856.1 ± 1 kg/m3, the speed of sound ([1]; x1 = 1) is reported as 1316 ± 3 m/s and the viscosity ([1]; x1 = 1) is reported as 0.609 ± 0.011 mPa·s.
In the case of CCC(C)=O [butanone] + Cc1ccccc1C, the mass density ([1]; x2 = 0) is reported as 799.6 ± 0.9 kg/m3, the speed of sound ([1]; x2 = 0) is reported as 1195 ± 3 m/s and the viscosity ([1]; x2 = 0) is reported as 0.376 ± 0.009 mPa·s. It also gave a mass density ([1]; x2 = 0.0437) of 805.6 ± 0.9 kg/m3, a speed of sound ([1]; x2 = 0.0437) of 1208 ± 3 m/s and a viscosity ([1]; x2 = 0.0437) of 0.39 ± 0.009 mPa·s. For the same compound, the mass density ([1]; x2 = 0.1095) was 813.7 ± 0.9 kg/m3, the speed of sound ([1]; x2 = 0.1095) was 1222 ± 3 m/s and the viscosity ([1]; x2 = 0.1095) was 0.412 ± 0.009 mPa·s. The mass density ([1]; x2 = 0.2288) was 825.7 ± 0.9 kg/m3, the speed of sound ([1]; x2 = 0.2288) was 1244 ± 3 m/s and the viscosity ([1]; x2 = 0.2288) was 0.451 ± 0.01 mPa·s. The mass density ([1]; x2 = 0.3564) was 836.2 ± 0.9 kg/m3, the speed of sound ([1]; x2 = 0.3564) was 1266 ± 3 m/s and the viscosity ([1]; x2 = 0.3564) was 0.493 ± 0.01 mPa·s. For the same compound, the mass density ([1]; x2 = 0.4969) was 846.1 ± 0.9 kg/m3, the speed of sound ([1]; x2 = 0.4969) was 1288 ± 3 m/s and the viscosity ([1]; x2 = 0.4969) was 0.542 ± 0.011 mPa·s. It also gave a mass density ([1]; x2 = 0.65) of 856 ± 1 kg/m3, a speed of sound ([1]; x2 = 0.65) of 1310 ± 3 m/s and a viscosity ([1]; x2 = 0.65) of 0.601 ± 0.011 mPa·s. For the same compound, the mass density ([1]; x2 = 0.8165) was 865.9 ± 1 kg/m3, the speed of sound ([1]; x2 = 0.8165) was 1331 ± 3 m/s and the viscosity ([1]; x2 = 0.8165) was 0.673 ± 0.012 mPa·s. For the same compound, the mass density ([1]; x2 = 0.9244) was 871.7 ± 1 kg/m3, the speed of sound ([1]; x2 = 0.9244) was 1339 ± 3 m/s and the viscosity ([1]; x2 = 0.9244) was 0.727 ± 0.013 mPa·s.
With CCC(C)=O [butanone] the mass density [2] was 799.6 ± 0.9 kg/m3, the speed of sound [2] was 1195 ± 3 m/s and the viscosity [2] was 0.376 ± 0.009 mPa·s.
Compound Cc1ccc(C)cc1 [1,4-dimethylbenzene] has a mass density [2] of 856.1 ± 1 kg/m3, a speed of sound [2] of 1316 ± 3 m/s and a viscosity [2] of 0.609 ± 0.011 mPa·s.
CCC(C)=O [butanone] + CC(C)c1ccccc1 gave a mass density ([1]; x2 = 0) of 799.6 ± 0.9 kg/m3, a speed of sound ([1]; x2 = 0) of 1195 ± 3 m/s and a viscosity ([1]; x2 = 0) of 0.376 ± 0.009 mPa·s.

From the NIST ThermoML archive (doi:10.1021/je049793l)
